Data on 4 molecules can be found in patent US11702442B2, “Cyclic dinucleotide compounds as sting agonists” (The Regents of the University of California, priority 2019, dated 2023).

One assay relates to STING pathway. Description: IRF3 phosphorylation in RAW 264.7 cells (immunoblot pIRF3 vs β-actin). The format is cell-based, murine. To be noted: 2 h after transfection; for IRF3 phosphorylation (pIRF3), concentration dependence: RAW 264.7, 1, 5 and 10 μM CDN. The protocol:
FIGS. 2A-2B show IRF3 phosphorylation induced by c-di-GMP and its analogues. […] 1, 5 and 10 μM of each CDN was used to transfect RAW 264.7 cells. Cells were lysed with NP-40 lysis buffer 2 h post transfection, 20 μg of total protein was loaded on SDS-polyacrylamide gel. Proteins were transferred to PVDF membrane after gel electrophoresis, and immunoblotted against pIRF3 and β-actin. […] The y-axis indicates relative intensity of pIRF3 compare to β-actin.
To analyze the immunostimulatory effects of all synthetic CDNs in greater detail, RAW 264.7 cells were treated with various concentrations of c-di-GMP, c-di-tzGMP, c-di-thGMP, c-GthGMP and c-GtzGMP and the phosphorylation of IRF3 to pIRF3 was evaluated. CDNs were thus transfected into RAW 264.7 murine cells with digitonin as described in previous studies.[7b,16] Cells were then lysed with NP-40 buffer 2 h after transfection, and total protein was collected for immunoblotting against phosphorylated IRF3 (pIRF3) and β-actin. […] Two other biological replicates produced similar trends (See FIG. S2 in Yi et al, ChemBioChem, Volume 21 (2020)).
Immunoblotting. RAW 264.7 cells were plated on 24-well plates (5×10^5 cells per well) and incubate at 37° C. for 48 h. Cells were then transfected with 1-10 μM of CDN in a permeabilization buffer containing 10 μg/mL digitonin, 50 mM HEPES, pH 7, 100 mM KCl, 3 mM MgCl2, 85 mM sucrose, 1 mM ATP, 0.1 mM DTT, 0.2% BSA for 30 mins at 37° C., then incubated with regular growth medium for 2 h. Cells were lysed with NP-40 lysis buffer containing protease inhibitor cocktail (Roche), PhosSTOP (Roche) and PMSF, and total protein was collected and quantified by BCA assay. Protein extracts were resolved by SDS-PAGE with 7.5% gel and transferred to PVDF membrane. Proteins were detected with the following primary antibodies: rabbit anti-pIRF3 monoclonal antibody (Cell Signaling Technology), mouse anti-β actin monoclonal antibody (Sigma-Aldrich).
On the technique in general: In western blotting, separated proteins are transferred to a membrane and probed.

A further assay deals with DncV (Vibrio cholerae serotype O1, UniProt Q9KVG7). Briefly: DncV-mediated CDN synthesis kinetics monitored by HPLC. The format is biochemical. Details: made in house; host or cells: Escherichia coli BL21(DE3). To be noted: for k2 / k3 / k1: 500 μM NTP, DncV, 37° C., mean±SD; for k2: cyclization of intermediate to product; for k3: degradation of intermediate; for k1: first phosphodiester bond formation; for k1 derived from HPLC analysis: as quoted for comparison with kapp; for k2/k3: product formation vs intermediate degradation. The source says:
DncV generates CDNs through a series of sequential reactions, which are thought to involve a release-and-rebound process of the intermediate. [7b,17] After the first 3′,5′-phosphodiester bond formation, the linear dinucleotide pppNpN is released and oppositely rebound to the enzyme, after which the second 3′,5′-phosphodiester linkage is made. [7b,16b,18] To ultimately apply and interpret real-time fluorescence measurements, a better understanding of the enzymatic conversion of GTP and its analogues into the corresponding CDNs is therefore required. The reaction time course was consequently analyzed, paying particular attention to the accumulation and consumption of intermediates. DncV was incubated with GTP, tzGTP and thGTP, and the reactions containing each of the corresponding substrates were quenched with calf intestinal alkaline phosphatase (CIAP) at designated time points. The relative concentrations of the starting material (S), uncyclized intermediate (I) and product (P) were then monitored by HPLC. […] Taking into account the unique release-and-rebound process of the uncyclized dinucleotide intermediate, [16b,20] the kinetics of the DncV-mediated CDN syntheses was therefore analyzed according to the model in Scheme 1a and the differential Equations (1)-(4), in which S represents the starting NTP, I1 and I2 respectively represent intermediates pppNpN and degraded intermediate pNpN (I=I1+I2), and P represents the product CDN. Papp (apparent product) stands for the sum of all the dinucleotide species, including linear ones and cyclized products.
Differential Equations (1)-(4) d[S]/dt=−2k1[S]^2 (1) d[I1]/dt=k1[S]^2−[…] (2) d[P]/dt=k2[I3] (3) d[I2]/dt=k3[I1] (4)
[…] of the mixture was subjected to HPLC analysis after filtration. The reaction mixture was separated by Sepax Bio C-18 column (250×10 mm, 5 pmparticle size) with a gradient of 0.5%-25% of 10 mM TEAA, pH7 in Me0H in 20 min at 25° C. on an Agilent 1200 series HPLC system (Agilent Technologies).
Data Analysis and curve fitting. […] The relative concentrations were plotted against time.

SMILES strings stand for the structures.

Chain of DncV (Q9KVG7 whole entry): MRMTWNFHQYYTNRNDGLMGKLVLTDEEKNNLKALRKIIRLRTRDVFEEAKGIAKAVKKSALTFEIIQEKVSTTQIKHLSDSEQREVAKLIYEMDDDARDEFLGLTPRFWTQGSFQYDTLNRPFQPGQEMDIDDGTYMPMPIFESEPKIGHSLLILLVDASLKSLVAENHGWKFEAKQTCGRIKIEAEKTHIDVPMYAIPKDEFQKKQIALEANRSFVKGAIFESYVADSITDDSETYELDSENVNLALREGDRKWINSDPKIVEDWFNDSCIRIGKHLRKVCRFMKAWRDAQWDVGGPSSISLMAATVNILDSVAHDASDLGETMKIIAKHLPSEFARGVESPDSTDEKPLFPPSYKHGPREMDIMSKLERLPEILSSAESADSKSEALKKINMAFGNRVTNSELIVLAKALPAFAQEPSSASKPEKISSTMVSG

Take `Nc1nc2c([C@@H]3O[C@@H]4COP(=O)(O)O[C@H]5[C@@H](O)[C@H](c6scc7c(=O)[nH]c(N)nc67)O[C@@H]5COP(=O)(O)O[C@H]4[C@H]3O)scc2c(=O)[nH]1` [c-di-^thGMP]: in the assay on STING pathway, the “IRF3 phosphorylation (pIRF3), concentration dependence” value is “did not trigger observable IRF3 activation at any of the concentrations tested”. Moreover, at DncV, the k2 entry is on record as “(2.32 ± 0.05) × 10^−4 s^−1”, the k3 result is “(2.91 ± 0.01) × 10^−5 s^−1”, the k1 entry is listed as “(3.08 ± 0.03) × 10^−7 μM^−1s^−1” and the “k1 derived from HPLC analysis” value came out at 0.31 ± 0.03 M⁻¹ s⁻¹. On DncV, this molecule yielded a k2/k3 of 8.0. Further, at DncV (listed as c-di-thGMP), the k2 result was “(2.32±0.05)×10^−3 s^−1”, the k3 result was “(2.91±0.01)×10^−5 s^−1” and the k1 entry is on record as “(3.08±0.03)×10^−7 μM^−1s^−1”.

Turning to `Nc1nc2c(ncn2[C@@H]2O[C@@H]3COP(=O)(O)O[C@H]4[C@@H](O)[C@H](n5cnc6c(=O)[nH]c(N)nc65)O[C@@H]4COP(=O)(O)O[C@H]3[C@H]2O)c(=O)[nH]1` [c-di-GMP, reference compound], the “IRF3 phosphorylation (pIRF3)” value with STING pathway (RAW 264.7, 1 μM CDN) is given as “did not induce obvious IRF3 activation”; in the assay on STING pathway (RAW 264.7, 5 and 10 μM CDN) it was “comparable efficiency in inducing IRF3 phosphorylation”. The molecule further returned a k2/k3 at DncV of 116.

Consider `Nc1nc2c([C@@H]3O[C@@H]4COP(=O)(O)O[C@H]5[C@@H](O)[C@H](c6snc7c(=O)[nH]c(N)nc67)O[C@@H]5COP(=O)(O)O[C@H]4[C@H]3O)snc2c(=O)[nH]1` [c-di-^tzGMP], for which, in the assay on STING pathway, the “IRF3 phosphorylation (pIRF3), concentration dependence” value is on record as “Increasing amounts of phosphorylated IRF3”. At DncV, the k2 result is listed as “(3.4 ± 0.2) × 10^−3 s^−1”, the k3 result is “(1.3 ± 0.1) × 10^−4 s^−1”, the k1 entry is “(1.26 ± 0.07) × 10^−6 μM^−1s^−1” and the “k1 derived from HPLC analysis” value turned out to be 1.26 ± 0.07 M⁻¹ s⁻¹. Besides, the k2/k3 on DncV came to 26. Also, at DncV (listed as c-di-tzGMP), the k2 result is reported as “(3.4±0.2)×10^−3 s^−1”, the k3 entry is given as “(1.3±0.1)×10^−4 s^−1” and the k1 entry was “(1.26±0.07)×10^−6 μM^−1s^−1”.

With `Nc1nc2c([C@@H]3O[C@@H]4COP(=O)(O)O[C@H]5[C@@H](O)[C@H](n6cnc7c(=O)[nH]c(N)nc76)O[C@@H]5COP(=O)(O)O[C@H]4[C@H]3O)scc2c(=O)[nH]1` [c-G^thGMP], the “IRF3 phosphorylation (pIRF3), concentration dependence” value with STING pathway is “no clear dose-response”.
